US11098061B2 (Celgene CAR LLC, priority 2013, dated 2021)

Experiments:
[1] = molecular target: p38a activated, mitogen-activated protein kinase-activated protein kinase 2 (MAPKAP-K2 or MK-2) enzyme (Homo sapiens (Human), UniProt P49137); assay: MK2 Omnia continuous-read kinase assay for compound potency; type: biochemical; details: [MK-2]=0.4 nM, [ATP]=1.0 mM, [ST3-Sox]=10 μM
Text: The protocol below describes a continuous-read kinase assay optimized to measure potency of compounds against p38a activated, mitogen-activated protein kinase-activated protein kinase 2 (MAPKAP-K2 or MK-2) enzyme. The mechanics of the assay platform are best described by the vendor (Invitrogen, Carlsbad, Calif.) on their website at the following URL: invitrogen.com/search/global/searchAction. action?resultPage=1 &resultsPerPage=15 &query=om nia&personaFilterTerm=Support+%26+Troubleshoot
Kinase reactions were started with the addition of 40 μL of MK-2 enzyme and monitored every 71 seconds for 30-240 minutes at λex360/λem485 in a Synergy^2, Synergy^4 or Synergy H^4 plate reader from BioTek (Winooski, Vt.). […] Initial velocity (0 minutes to +30 minutes) from each reaction was estimated from the slope of a plot of relative fluorescence units vs time (minutes) and normalized to the no enzyme and no inhibitor control groups for % Inhibition. The resulting % Inhibition values were then plotted against inhibitor concentration to estimate IC50 from log[Inhibitor] vs Response, Variable Slope model in GraphPad Prism from GraphPad Software (San Diego, Calif.).
[MK-2]=0.4 nM, [ATP]=1.0 mM and [ST3-Sox]=10 μM (ATP ^appKM=8-10 μM)

MK2 = MK2 (Homo sapiens (Human), UniProt P49137); assay: MK2 modification assessment by whole protein mass spectrometry; type: binding; details: intact MK2, 60 min, 10-fold excess of compound to protein
Chain of MK2 (P49137 whole entry): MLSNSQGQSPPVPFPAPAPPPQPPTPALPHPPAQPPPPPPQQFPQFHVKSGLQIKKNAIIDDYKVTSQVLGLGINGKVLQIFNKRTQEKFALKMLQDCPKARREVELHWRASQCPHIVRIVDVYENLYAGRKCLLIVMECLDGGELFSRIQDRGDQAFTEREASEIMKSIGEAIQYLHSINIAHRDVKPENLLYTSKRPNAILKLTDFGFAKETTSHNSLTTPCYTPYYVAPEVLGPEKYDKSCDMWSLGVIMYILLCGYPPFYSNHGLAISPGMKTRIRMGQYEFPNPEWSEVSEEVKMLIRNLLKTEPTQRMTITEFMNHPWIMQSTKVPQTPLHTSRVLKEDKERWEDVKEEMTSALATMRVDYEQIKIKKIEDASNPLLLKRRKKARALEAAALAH
Experimental: Modification of MK2 is measured by whole protein MS analysis. […] 5 μL aliquots of the samples were diluted with 15 μL of 0.2% TFA prior to micro C4 ZipTipping directly onto the MALDI target using sinapinic acid as the desorption matrix (10 mg/ml in 0.1% TFA:Acetonitrile 50:50). Analysis was performed on a AB Sciex 4800 MALDI TOF/TOF retro fitted with an HM2 detector (CovalX). Percent modification of target MK2 (i.e., the percent of total MK2 modified by the test compound) for each compound was calculated by subtracting the centroid mass of the compound treated MK2 from the centroid mass of the control MK2 and dividing that value with the mass of the compound.

Chain of p38a activated, mitogen-activated protein kinase-activated protein kinase 2 (MAPKAP-K2 or MK-2) enzyme (P49137 whole entry): as above

IC50 [1] [nM]	MK2 Mass Mod (MK2)	SMILES
> 1000	F (mass modification of 31-69%)	C=CC(=O)Nc1ccccc1Nc1nccc(-c2cc3c([nH]2)C2(CCCNC2)CNC3=O)n1 (racemic) [Compound I-5, N-(2-((4-(4′-oxo-1′,4′,5′,6′-tetrahydrospiro[piperidine-3,7′-pyrrolo[3,2-c]pyridin]-2′-yl)pyrimidin-2-yl)amino)phenyl)acrylamide]
< 100	E (mass modification of ≥70%)	C=CC(=O)Nc1cc(-c2cc(-c3cc4c([nH]3)C3(CCCNC3)CNC4=O)ccn2)ccc1N1CCN(C)CC1 (racemic) [Compound I-10, N-(2-(4-methylpiperazin-1-yl)-5-(4-(4′-oxo-1′,4′,5′,6′-tetrahydrospiro[piperidine-3,7′-pyrrolo[3,2-c]pyridin]-2′-yl)pyridin-2-yl)phenyl)acrylamide]
101 to 500	F (mass modification of 31-69%)	C=CC(=O)Nc1cc(C(=O)Nc2cc(-c3cc4c([nH]3)C3(CCCNC3)CNC4=O)ccn2)ccc1F (racemic) [Compound I-24, 3-acrylamido-4-fluoro-N-(4-(4′-oxo-1′,4′,5′,6′-tetrahydrospiro[piperidine-3,7′-pyrrolo[3,2-c]pyridin]-2′-yl)pyridin-2-yl)benzamide]
> 1000	G (mass modification ≤30%)	C=CC(=O)NC1CCCCC1NC(=O)c1ccc2cc3n(c2c1)CCNC3=O (racemic) [Compound V-10, Racemic N-((1S,2R)-2-acrylamidocyclohexyl)-1-oxo-1,2,3,4-tetrahydropyrazino[1,2-a]indole-7-carboxamide]
> 1000	G (mass modification ≤30%)	C=CC(=O)N[C@H]1CCCC[C@H]1NC(=O)c1ccc2cc3n(c2c1)C1(CCC1)CNC3=O (racemic) [Compound V-46, Cis-N-(2-acrylamidocyclohexyl)-1′-oxo-2′,3′-dihydro-1′H-spiro[cyclobutane-1,4′-pyrazino[1,2-a]indole]-7′-carboxamide (racemic)]
> 1000		C=CC(=O)NC1CCCCC1NC(=O)c1ccc2cc3n(c2c1)C1(CCC1)CNC3=O (racemic) [Compound V-64, trans-(2-acrylamidocyclohexyl)-1′-oxo-2′,3′-dihydro-1′H-spiro[cyclobutane-1,4′-pyrazino[1,2-a]indole]-7′-carboxamide (racemic)]
> 1000		C=CC(=O)Nc1c(C)ccc2oc(-c3ccc4cc5n(c4c3)C3(CCC3)CNC5=O)nc12 [Compound V-12, N-(5-methyl-2-(1′-oxo-2′,3′-dihydro-1′H-spiro[cyclobutane-1,4′-pyrazino [1,2-a]indol]-7′-yl)benzo[d]oxazol-4-yl)acrylamide]

Continued, molecule first:

SMILES	IC50 [1] [nM]	MK2 Mass Mod (MK2)
C=CC(=O)Nc1c(C)c(NC2CCCNC2)nc2ccnn12 (stereo not shown) [IV-b-1, N-(6-methyl-5-(piperidin-3-ylamino)pyrazolo [1,5-a]pyrimidin-7-yl)acrylamide]	101 to 500	
C=CC(=O)Nc1cc(-c2cc3c(cn2)CCc2c-3[nH]c3c2C(=O)NCC3)ccc1OCCCNC(=O)CCCC(=O)NCCCOCCOCCOCCCNC(=O)CCCC[C@H]1SC[C@H]2NC(=O)N[C@H]21 [Probe 1]	< 100	
C=CC(=O)Nc1cc(-c2cc3c(cn2)CCc2c-3[nH]c3c2C(=O)NCC3)ccc1OCCCNC(=O)CCCC(=O)NCCCOCCOCCOCCCNC(=O)CCCC[C@H]1SC[C@H]2NC(=O)N[C@H]21 [Probe 2, N1-(3-(2-acrylamido-4-(7-oxo-6,7,8,9,10,11-hexahydro-5H-pyrido[3′,4′:4,5]pyrrolo[2,3-f]isoquinolin-2-yl)phenoxy)propyl)-N5-(15-oxo-19-((3aR,4R,6aS)-2-oxohexahydro-1H-thieno[3,4-d]imidazol-4-yl)-4,7,10-trioxa-14-azanonadecyl)glutaramide]	< 100	
C=CC(=O)Nc1cc(-c2cc(-c3cc4n(c3)CCNC4=O)ccn2)ccc1OC [V-c-1, N-(2-methoxy-5-(4-(1-oxo-1,2,3,4-tetrahydropyrrolo[1,2-a]pyrazin-7-yl)pyridin-2-yl)phenyl)acrylamide]		F (mass modification of 31-69%)
